Where two headings read alike, the source gives them in different places.
What was measured:
[1] = Preliminary toxicology, subcutaneous injection for 14 days; assay type: in vivo, CD-1 female mice; conditions: CD-1 female mice; 80 mg/kg/day s.c. 14 days
Protocol: The toxicological effects of CLT, and compounds 28, 30 and 31 were tested in CD-1 female mice. A dose of 80 mg/kg/day was given to each mouse via subcutaneous injection for a period of 14 days. Preliminary toxicological data was determined by measuring body weight, gross pathology of organs blood chemistry and histology. The vehicle used was DMF 12%+2% Tween 20 88%.

[2] = test system: SU.86.86 pancreatic adenocarcinoma; assay: Mouse xenograft tumor growth; assay type: in vivo, nude mice; conditions: SU.86.86 pancreatic adenocarcinoma mouse xenograft
[3] = test system: H209 small lung cell carcinoma; assay: Mouse xenograft tumor growth; assay type: in vivo, SCID mice
[4] = test system: H460 large cell lung carcinoma; assay: Mouse xenograft tumor growth; assay type: in vivo, CD-1 nude mice
RPMI-8226 = assay: In-Vitro Testing SRB panel: Leukemia; assay type: cell-based
NCI-H226 = assay type: cell-based
NCI-H522 = assay type: cell-based
SW-620 = assay: In-Vitro Testing SRB panel: Colon Cancer; assay type: cell-based
SF-295 = assay: In-Vitro Testing SRB panel: CNS Cancer; assay type: cell-based
SNB-19 = assay: In-Vitro Testing SRB panel: CNS Cancer; assay type: cell-based
MALM-3M = assay: In-Vitro Testing SRB panel: Melanoma; assay type: cell-based

SMILES: COc1ccc2c(c1)CN(C(=O)c1ccc([N+](=O)[O-])cc1)c1ccc(Cl)cc1C2c1ccccc1Cl (centres unmarked) [Compound 30]
- Body Weight Change [1]: 108%
- Liver Weight [1]: 1.52 ± 0.23 g
- RBC [1]: 8.2 ± 0.2 10^6/mm^3
- WBC [1]: 6.4 ± 1.7 10^3/mm^3
- WBC, RBC, BUN and creatine levels [1]: no differences were found
- tumor growth [2]: showed inhibition of tumor growth
- tumor growth [3]: showed inhibition of tumor growth
- tumor growth [4]: showed inhibition of tumor growth
- GI50 (RPMI-8226; Homo sapiens, RPMI-8226): 0.953 µM
- CC50 (RPMI-8226; Homo sapiens, RPMI-8226, read-out: LC50 (the source's name)): > 100 µM
- TGI (RPMI-8226; RPMI-8226): >1.00E−04 Molar
- Percent Growth (RPMI-8226; RPMI-8226, Log10 concentration −4.0 Molar): 36%
- Percent Growth (RPMI-8226; RPMI-8226, Log10 concentration −5.0 Molar): 30%
- Percent Growth (RPMI-8226; RPMI-8226, Log10 concentration −6.0 Molar): 49%
- Percent Growth (RPMI-8226; RPMI-8226, Log10 concentration −7.0 Molar): 100%
- Percent Growth (RPMI-8226; RPMI-8226, Log10 concentration −8.0 Molar): 86%
- GI50 (NCI-H226; Homo sapiens, NCI-H226): 3.98 µM
- CC50 (NCI-H226; Homo sapiens, NCI-H226, read-out: LC50 (the source's name)): > 100 µM
- TGI (NCI-H226; NCI-H226): >1.00E−04 Molar
- Percent Growth (NCI-H226; NCI-H226, Log10 concentration −4.0 Molar): 34%
- Percent Growth (NCI-H226; NCI-H226, Log10 concentration −5.0 Molar): 35%
- Percent Growth (NCI-H226; NCI-H226, Log10 concentration −6.0 Molar): 73%
- Percent Growth (NCI-H226; NCI-H226, Log10 concentration −7.0 Molar): 79%
- Percent Growth (NCI-H226; NCI-H226, Log10 concentration −8.0 Molar): 83%
- GI50 (NCI-H522; Homo sapiens, NCI-H522): 0.76 µM
- CC50 (NCI-H522; Homo sapiens, NCI-H522, read-out: LC50 (the source's name)): > 100 µM
- TGI (NCI-H522; NCI-H522): 6.10E−05 Molar
- Percent Growth (NCI-H522; NCI-H522, Log10 concentration −4.0 Molar): −9%
- Percent Growth (NCI-H522; NCI-H522, Log10 concentration −5.0 Molar): 19%
- Percent Growth (NCI-H522; NCI-H522, Log10 concentration −6.0 Molar): 42%
- Percent Growth (NCI-H522; NCI-H522, Log10 concentration −7.0 Molar): 113%
- Percent Growth (NCI-H522; NCI-H522, Log10 concentration −8.0 Molar): 114%
- GI50 (SW-620; Homo sapiens, SW-620): > 100 µM
- CC50 (SW-620; Homo sapiens, SW-620, read-out: LC50 (the source's name)): > 100 µM
- TGI (SW-620; SW-620): >1.00E−04 Molar
- Percent Growth (SW-620; SW-620, Log10 concentration −4.0 Molar): 56%
- Percent Growth (SW-620; SW-620, Log10 concentration −5.0 Molar): 57%
- Percent Growth (SW-620; SW-620, Log10 concentration −6.0 Molar): 87%
- Percent Growth (SW-620; SW-620, Log10 concentration −7.0 Molar): 99%
- Percent Growth (SW-620; SW-620, Log10 concentration −8.0 Molar): 102%
- GI50 (SF-295; Homo sapiens, SF-295): 6.49 µM
- CC50 (SF-295; Homo sapiens, SF-295, read-out: LC50 (the source's name)): > 100 µM
- TGI (SF-295; SF-295): >1.00E−04 Molar
- Percent Growth (SF-295; SF-295, Log10 concentration −4.0 Molar): 32%
- Percent Growth (SF-295; SF-295, Log10 concentration −5.0 Molar): 41%
- Percent Growth (SF-295; SF-295, Log10 concentration −6.0 Molar): 88%
- Percent Growth (SF-295; SF-295, Log10 concentration −7.0 Molar): 104%
- Percent Growth (SF-295; SF-295, Log10 concentration −8.0 Molar): 93%
- GI50 (SNB-19; Homo sapiens, SNB-19): 8.22 µM
- CC50 (SNB-19; Homo sapiens, SNB-19, read-out: LC50 (the source's name)): > 100 µM
- TGI (SNB-19; SNB-19): >1.00E−04 Molar
- Percent Growth (SNB-19; SNB-19, Log10 concentration −4.0 Molar): 37%
- Percent Growth (SNB-19; SNB-19, Log10 concentration −5.0 Molar): 47%
- Percent Growth (SNB-19; SNB-19, Log10 concentration −6.0 Molar): 86%
- Percent Growth (SNB-19; SNB-19, Log10 concentration −7.0 Molar): 90%
- Percent Growth (SNB-19; SNB-19, Log10 concentration −8.0 Molar): 95%
- GI50 (MALM-3M; Homo sapiens): 0.342 µM
- CC50 (MALM-3M; Homo sapiens, MALM-3M, read-out: LC50 (the source's name)): > 100 µM
- TGI (MALM-3M; MALM-3M): 8.35E−05 Molar
